Results published in ChEMBL document CHEMBL3272260, “Metabolic and photochemical hydroxylation of 5-nitro-2-furancarboxaldehyde derivatives” (J Med Chem, 1976).
One block for each molecule: values may come before it.

How the values were obtained:
[1] = Drug metabolism in rat urine treated with nitrofurantoin at 100 mg/kg, po measured up to 6 hrs by NMR-spectroscopic analysis; format: ADME, organism-based; set-up: dose 100 mg/kg, route oral; details: in vivo
[2] = Chemical stability of the compound; format: physicochemical
[3] = Drug metabolism in rat urine treated with nitrofurantoin at 100 mg/kg, po measured up to 6 hrs by UV-spectroscopic analysis; format: ADME, organism-based; set-up: dose 100 mg/kg, route oral; details: in vivo
[4] = Drug metabolism in rat urine treated with nitrofurantoin at 100 mg/kg, po measured up to 6 hrs by IR-spectroscopic analysis; format: ADME, organism-based; set-up: dose 100 mg/kg, route oral; details: in vivo
[5] = Half life of the compound in 0.1% aqueous solution; format: physicochemical
[6] = Dissociation constant, pKa of the compound by potentiometric titration analysis; format: physicochemical
[7] = Half life of the compound under atmospheric pressure condition; format: physicochemical
[8] = Half life of the compound under in-vacuo condition; format: physicochemical

Drug metabolism [1]: metabolite_detected
Stability [2]: Stable
Drug metabolism [3]: metabolite_detected
Drug metabolism [4]: metabolite_detected
Structure (SMILES): O.O=C1CN(/N=C/C2=CC(=O)C(=[N+]([O-])[O-])O2)C(=O)N1.[K+]

half-life at 0.1 % [5]: 48 h
pKa [6]: 2.7
Structure (SMILES): O.O.O=C1OCCN1/N=C/c1cc(O)c([N+](=O)[O-])o1

half-life [7]: 120 h
half-life [8]: > 624 h
Structure (SMILES): O.O=C1OCCN1/N=C/c1cc(O)c([N+](=O)[O-])o1

Stability [2]: Stable
Structure (SMILES): O=C1C=C(/C=N/N2CCOC2=O)OC1=[N+]([O-])[O-].[K+]
